Data published in patent US10350315B2, “Quinoline-3-carboxamide compounds and their use in diagnosis” (Westfaelische Wihelms-Universitaet Muenster, priority 2014, dated 2019).

Key:
[1] = target: T1, S100A9 (Mus musculus, UniProt P31725); test: Myocardial infarction mouse model, FRI of the explanted heart; assay type: in vivo, C57BI/6 mouse; details: one day post LAD occlusion, two hours after i.v. injection of 2 nmol
T1 construct: from tissue; host or cells: living mice (inflamed ear, joints) and explanted mouse heart, aorta and lungs
T1 sequence (P31725 2-113 limits assumed): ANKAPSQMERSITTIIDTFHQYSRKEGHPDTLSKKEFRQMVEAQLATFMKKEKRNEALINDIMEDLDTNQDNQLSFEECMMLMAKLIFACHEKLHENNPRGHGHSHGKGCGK
Procedure: FIG. 7: Accumulation of Cy5.5-CES271 in a mouse model of myocardial infarction. One day post occlusion of the LAD in a C57BI/6 mouse: FRI of the explanted heart (longitudinal mid-infarction cut) two hours after i.v. injection of 2 nmol Cy5.5-CES271. […] Furthermore, absence of S100A9 in the remote myocardium (RM) is accompanied by the lack of Cy5.5-CES271.
Myocardial infarction was induced by opening the chest of a mouse and transient ligation of the left coronary artery for 60 minutes. The ischemic event triggers acute inflammatory response to the tissue injury in the first hours/days followed by a remodeling process (involving less intense inflammatory processes) after about one week. FRI was performed one day after the surgical intervention to assess the intense acute inflammatory response and the images in FIG. 7 were acquired two hours after injection of 2 nmol Cy5.5-CES-271. […] FRI of the explanted heart (longitudinal mid-infarction cut) two hours after i.v. injection of 2 nmol Cy5.5-CES271 is shown.

[2] = target: T1, S100A9; test: LPS-induced acute lung injury (ALI) mouse model, FRI of explanted lungs; assay type: in vivo, mice
Procedure: FIG. 22: Accumulation of Cy5.5-CES271 in a mouse model of acute lung inflammation (ALI). (A) At different time points after the intranasal application of either 10 pg or 50 pg LPS the local and systemic levels of S100A8/S100A9 are compared to control animals. Exemplary paraffin sections of inflamed and healthy lung tissue, taken at 8 h after LPS (10 pg) application were stained for S100A9-expression. Histological data of control (upper image) and lung inflammation (lower image) confirmed local expression of these proteins. […] 50 pg LPS treated mice injected with glycine saturated Cy5.5 served as perfusion controls. (C) S100A8/S100A9 serum levels of LPS treated and control animals are correlated with the measured Mean Fluorescence Intensity over the lungs (R^2=0.69; n=19; p<0.001).
LPS-induced lung inflammation was elicited via intranasal application of 50 pg or 10 pg of LPS. LPS from Escherichia coli 055:B5 was obtained from Sigma-Aldrich. Directly after the administration of LPS 2 nmol of tracer were injected intravenously. Glycine saturated Cy5.5 served as a perfusion control for CES271-Cy5.5, while Cy5.5-labelled rabbit IgG without relevant specificity served as a control for aS100A9-Cy5.5. Mice were either assigned to fluorescence mediated tomography (FMT) to fluorescence reflectance imaging (FRI). For FRI imaging, the mice were sacrificed at the indicated time points. Afterwards, BALF was obtained and the lungs were fixed with 1% low melt aggarose.
2D FRI lung imaging was performed using the Bruker FX Pro Imaging Station (Bruker Corporation). Excitation light was set to 630 nm using an appropriate bandpass filter. Emission at 700 nm was recorded using a filtre-equipped high-sensitivity (4-million-pixel) cooled charge-coupled device camera. Acquisition time was 5 s for each image.
Mice were intravenously injected with Cy5.5-labelled CES271 (CES271-Cy5.5). The animals underwent optical imaging at various time points after injection. In our blocking experiments each mouse received 2 pmol CES271 1 h before 2 nmol of CES271-Cy5.5 were injected. […]

Substance: 3-ethyl-2((1E,3E,5E)-5-(3-(1-(5-ethyl-4-hydroxy-1-methyl-2-oxo-1,2-dihydroquinolin-3-yl)-1,15-dioxo-2-phenyl-5,8,11-trioxa-2,14-diazanonadecan-19-yl)-1,1-dimethyl-6,8-disulfonato-1H-benzo[e]indol-2(3H)-ylidene)penta-1,3-dien-1-yl)-1,1-dimethyl-1H-benzo[e]indol-3-ium-6,8-disulfonate [Cy5.5-CES271]
- Accumulation in the myocardial infarction (MI) [1]: accumulates in the myocardial infarction
- Accumulation in the remote myocardium (RM) [1]: lack of Cy5.5-CES271 accumulation
- Tracer accumulation in explanted lungs of LPS treated mice ([2]; 3 and 6 hours after parallel LPS/tracer application, 50 pg LPS intranasal, 2 nmol i.v., n=3, p<0.01): specific tracer accumulation could clearly be delineated
- Ratio of tracer accumulation in the lung parenchyma, LPS treated mice ([2]; 6 h post induction): up to 2.5
- Correlation (R^2) of S100A8/S100A9 serum levels with Mean Fluorescence Intensity over the lungs ([2]; n=19, p<0.001): 0.69
